According to ChEMBL document CHEMBL5325404, “Identification of inhibitors as drug candidates against Chagas disease” (Eur J Med Chem, 2023):

Tests used:
Trypanosoma cruzi = experiment: Antitrypanosomal activity against Trypanosoma cruzi Y trypomastigotes infected in monkey LLC-MK2 cells assessed as parasite growth inhibition incubated for 24 hrs by resazurin dye based microplate reader assay; assay type: functional, organism-based
[1] = Cytotoxicity against mouse NCTC clone 929 cells incubated for 48 hrs by MTT spectrophotometric assay; assay type: toxicity, cell-based; details: NCTC clone 929 (L929) cells
[2] = Selectivity index, ratio of CC50 for cytotoxicity against mouse NCTC clone 929 cells to IC50 for antitrypanosomal activity against Trypanosoma cruzi Y trypomastigotes infected in monkey LLC-MK2 cells assessed as parasite growth inhibition; assay type: toxicity, cell-based; details: read-out: Ratio CC50/IC50
[3] = Trypanosoma cruzi, Y, LLC-MK2, 24 h, read-out: IC50

| SMILES | IC50 (Trypanosoma cruzi; [3]) [µM] | IC50 (Trypanosoma cruzi) | CC50 at 48 h [1] [µM] | selectivity ratio [2] |
| --- | --- | --- | --- | --- |
| CC[C@]1(c2ccccc2)NC(=O)N(NC(=O)CSc2nc(C)nc3sc(C)c(C)c23)C1=O | 13.6 | – | > 200 | > 14.7 |
| Cc1ccc2nc(NC(=O)[C@H]3CCCN3S(=O)(=O)c3cccc4nsnc34)sc2c1 | – | Not Active | – | – |
| CCOc1ccccc1C(=O)NCC(=O)N1CCC[C@@H](c2nnc3n2CCCCC3)C1 | – | Not Active | – | – |
| Cc1ccccc1Nc1nc(N(C)CCO)nc2c1cnn2-c1ccccc1 | 12.8 | – | 25 | 2 |
| COc1ccc2nc(NC(=O)CN(C)S(=O)(=O)c3cccc4nsnc34)sc2c1 | – | Not Active | – | – |
| Cc1nn(C)c2[nH]c(=O)c(/C=C/C(=O)NCCc3ccc(Cl)cc3Cl)c(C)c12 | – | Not Active | – | – |
| Cc1cc(C)c2cc(C(=O)Nc3ccccc3-n3cncn3)[nH]c2c1 | 9 | – | 80.9 | 8.9 |
| Cc1cccc(NC(=O)[C@@H](Cc2ccccc2)NS(=O)(=O)c2cccc3nsnc23)c1 | 22.8 | – | 79.5 | 3.5 |
| Cc1ccc(NC(=O)Cn2nc3cc(C)nc(Nc4ccc(F)c(C)c4)n3c2=O)cc1 | – | Not Active | – | – |
| COc1ccc(C)cc1NC(=O)Cn1nc2cc(C)nc(Nc3ccc(F)cc3)n2c1=O | – | Not Active | – | – |
| Cn1nnc2cc(C(=O)Nc3nccn3Cc3ccccc3Cl)ccc21 | – | Not Active | – | – |
| Cc1ccc(-c2noc(C(=O)NCCNC(=O)COc3ccc(Cl)c(C)c3)n2)cc1 | – | Not Active | – | – |
| Cc1cc(C)c2cc(C(=O)NCc3ccccc3Cn3cncn3)[nH]c2c1 | – | Not Active | – | – |
| Cc1ccc(-n2nnnc2S[C@@H](C)C(=O)NCC(=O)Nc2ccc(F)c(F)c2F)c(C)c1 | 37.8 | – | 52.8 | 1.4 |
| CCOc1ccc(CCNC(=O)C2CCN(c3ncnc4onc(C)c34)CC2)cc1 | – | Not Active | – | – |
| Cc1ccc(C[C@H](C)NC(=O)Nc2ccc(C)c(-n3cnnn3)c2)s1 | – | Not Active | – | – |
| Cc1ccc(-n2cnnn2)cc1NC(=O)N[C@H](C)c1cccc(Cl)c1 | – | Not Active | – | – |
| CCCOCc1ccccc1CNC(=O)Nc1cnc2c(c1)c(C)nn2C | 68.9 | – | 66.9 | 1 |
| Cc1cc(C)cc(Nc2nc(C)cc3nn(CC(=O)Nc4ccc(C)c(F)c4)c(=O)n23)c1 | – | Not Active | – | – |

Second part, led by results:

| IC50 (Trypanosoma cruzi; [3]) [µM] | IC50 (Trypanosoma cruzi) | SMILES | CC50 at 48 h [1] [µM] | selectivity ratio [2] |
| --- | --- | --- | --- | --- |
| 18.4 | – | O=C(Cn1ccnc1[N+](=O)[O-])NCc1ccccc1 [BENZNIDAZOLE] | > 200 | > 10.7 |
| 32.1 | – | COc1ccccc1OCC#CCNS(=O)(=O)c1ccc(Cl)c(Cl)c1 | 128 | 4 |
| – | Not Active | CC(C)Nc1cc(C(=O)c2cc(F)ccc2O)cn2c(=O)c3ccccc3nc12 | – | – |
| 14.8 | – | OCCCNc1nc(Nc2ccc(F)cc2)c2cnn(-c3ccccc3)c2n1 | 39.2 | 2.6 |
| – | Not Active | Cc1ccc(-n2nnnc2S[C@@H](C)C(=O)NC(=O)Nc2ccccc2)cc1 | – | – |
| – | Not Active | Cc1ccc(NC(=O)NC(=O)[C@@H](C)Sc2nncn2Cc2ccco2)c(C)c1 | – | – |
| 7.1 | – | OCCCNc1nc(Nc2ccccc2)c2cnn(-c3ccccc3)c2n1 | 85.2 | 12 |
| – | Not Active | CCN(CCO)c1nc(Nc2cc(OC)ccc2OC)c2cnn(-c3ccccc3)c2n1 | – | – |
| 55.2 | – | O=C(Nc1ccc(F)cc1F)[C@H](NS(=O)(=O)c1cccc2nsnc12)c1ccccc1 | > 200 | > 3.6 |
| 10.1 | – | COc1ccc(OC)c(Nc2nc(NCCCO)nc3c2cnn3-c2ccccc2)c1 | > 200 | > 19.8 |
| – | Not Active | Cc1cc2nn(CC(=O)Nc3cc(F)cc(F)c3)c(=O)n2c(Nc2ccc(C)c(F)c2)n1 | – | – |
| – | Not Active | CC(=O)c1cn(CC(=O)NCCCc2nnc3ccccn23)c2ccccc12 | – | – |
| – | Not Active | Cc1nn(C)c2[nH]c(=O)c(CCC(=O)NC[C@@H]3CCCc4ccccc43)c(C)c12 | – | – |
| – | Not Active | Cc1cn([C@@H](C)c2ccccc2)nc1NC(=O)CCc1nc(C(C)C)no1 | – | – |
